Reference: PubChem BioAssay (NCI)
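In this assay, cells in 96-well plates receive the compound at five concentrations for 48 hours. Endpoints are linearly interpolated between the surrounding concentrations. TGI marks complete inhibition of growth.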

Experiments:
Experiment in all cases: NCI-60 cell line screen, 48 h
786-0 renal = test system: 786-0 renal
A498 renal = test system: A498 renal
A549 NSCLC = test system: A549 NSCLC
ACHN renal = test system: ACHN renal
CAKI-1 renal = test system: CAKI-1 renal
CCRF-CEM leukemia = test system: CCRF-CEM leukemia
COLO 205 colon = test system: COLO 205 colon
DU-145 prostate = test system: DU-145 prostate
EKVX NSCLC = test system: EKVX NSCLC
HCC-2998 colon = test system: HCC-2998 colon
HCT-116 colon = test system: HCT-116 colon
HCT-15 colon = test system: HCT-15 colon
HOP-62 NSCLC = test system: HOP-62 NSCLC
HOP-92 NSCLC = test system: HOP-92 NSCLC
HS 578T breast = test system: HS 578T breast
HT29 colon = test system: HT29 colon
IGROV1 ovarian = test system: IGROV1 ovarian
K-562 leukemia = test system: K-562 leukemia
KM12 colon = test system: KM12 colon
LOX IMVI melanoma = test system: LOX IMVI melanoma
M14 melanoma = test system: M14 melanoma
MALME-3M melanoma = test system: MALME-3M melanoma
MCF7 breast = test system: MCF7 breast
MDA-MB-231 breast = test system: MDA-MB-231 breast
MDA-MB-435 = test system: MDA-MB-435
MDA-N = test system: MDA-N
MOLT-4 leukemia = test system: MOLT-4 leukemia
NCI-H226 lung = test system: NCI-H226 lung
NCI-H23 lung = test system: NCI-H23 lung
NCI-H460 lung = test system: NCI-H460 lung
NCI-H522 lung = test system: NCI-H522 lung
NCI/ADR-RES ovarian = test system: NCI/ADR-RES ovarian
OVCAR-3 ovarian = test system: OVCAR-3 ovarian
OVCAR-4 ovarian = test system: OVCAR-4 ovarian
OVCAR-5 ovarian = test system: OVCAR-5 ovarian
OVCAR-8 ovarian = test system: OVCAR-8 ovarian
PC-3 prostate = test system: PC-3 prostate
RPMI-8226 leukemia = test system: RPMI-8226 leukemia
RXF 393 renal = test system: RXF 393 renal
SF-268 CNS = test system: SF-268 CNS
SF-295 CNS = test system: SF-295 CNS
SF-539 CNS = test system: SF-539 CNS
SK-MEL-2 melanoma = test system: SK-MEL-2 melanoma
SK-MEL-28 melanoma = test system: SK-MEL-28 melanoma
SK-MEL-5 melanoma = test system: SK-MEL-5 melanoma
SK-OV-3 ovarian = test system: SK-OV-3 ovarian
SN12C renal = test system: SN12C renal
SNB-19 CNS = test system: SNB-19 CNS
SNB-75 CNS = test system: SNB-75 CNS
SR leukemia = test system: SR leukemia
SW-620 colon = test system: SW-620 colon
T-47D breast = test system: T-47D breast
TK-10 renal = test system: TK-10 renal
U251 CNS = test system: U251 CNS
UACC-257 melanoma = test system: UACC-257 melanoma
UACC-62 melanoma = test system: UACC-62 melanoma
UO-31 renal = test system: UO-31 renal

Compound `C[Si](C)(C)CCOCN(C(=O)C1=CCC2(CC1)OCCO2)c1ccccc1I` has a TGI (786-0 renal) of 39.8 µM, a TGI (A498 renal) of 27.3 µM and a TGI (A549 NSCLC) of 88.2 µM. The TGI (ACHN renal) was 44 µM, the TGI (CAKI-1 renal) was 55.7 µM and the TGI (CCRF-CEM leukemia) was 79.5 µM. It also gave a TGI (COLO 205 colon) of over 100 µM, a TGI (DU-145 prostate) of over 100 µM and a TGI (EKVX NSCLC) of 29.1 µM. It also gave a TGI (HCC-2998 colon) of 50.5 µM, a TGI (HCT-116 colon) of 44.8 µM and a TGI (HCT-15 colon) of 41.6 µM. For the same compound, the TGI (HOP-62 NSCLC) was 42.1 µM, the TGI (HOP-92 NSCLC) was 22.1 µM and the TGI (HS 578T breast) was 44.6 µM. For the same compound, the TGI (HT29 colon) was over 100 µM, the TGI (IGROV1 ovarian) was 42.9 µM and the TGI (K-562 leukemia) was over 100 µM. The TGI (KM12 colon) was 38.3 µM, the TGI (LOX IMVI melanoma) was over 100 µM and the TGI (M14 melanoma) was 39.5 µM. The TGI (MALME-3M melanoma) was 52.9 µM, the TGI (MCF7 breast) was 34.4 µM and the TGI (MDA-MB-231 breast) was 56.6 µM. It also gave a TGI (MDA-MB-435) of 33.8 µM, a TGI (MDA-N) of 59.1 µM and a TGI (MOLT-4 leukemia) of 98.7 µM. It also gave a TGI (NCI-H226 lung) of 53.8 µM, a TGI (NCI-H23 lung) of 39 µM and a TGI (NCI-H460 lung) of 61.3 µM. The TGI (NCI-H522 lung) was 38.7 µM, the TGI (NCI/ADR-RES ovarian) was over 100 µM and the TGI (OVCAR-3 ovarian) was 38.9 µM. It also gave a TGI (OVCAR-4 ovarian) of 45.5 µM, a TGI (OVCAR-5 ovarian) of 41.9 µM and a TGI (OVCAR-8 ovarian) of over 100 µM. For the same compound, the TGI (PC-3 prostate) was 27 µM, the TGI (RPMI-8226 leukemia) was 52.2 µM and the TGI (RXF 393 renal) was 35.4 µM. It also gave a TGI (SF-268 CNS) of 41.9 µM, a TGI (SF-295 CNS) of 32 µM and a TGI (SF-539 CNS) of 53.4 µM. The TGI (SK-MEL-2 melanoma) was 32.6 µM, the TGI (SK-MEL-28 melanoma) was 42.9 µM and the TGI (SK-MEL-5 melanoma) was over 100 µM. For the same compound, the TGI (SK-OV-3 ovarian) was 33.4 µM, the TGI (SN12C renal) was 70.9 µM and the TGI (SNB-19 CNS) was 37.7 µM. For the same compound, the TGI (SNB-75 CNS) was 34.6 µM, the TGI (SR leukemia) was over 100 µM and the TGI (SW-620 colon) was 68 µM. The TGI (T-47D breast) was over 100 µM, the TGI (TK-10 renal) was 63.5 µM and the TGI (U251 CNS) was over 100 µM. The TGI (UACC-257 melanoma) was 54.3 µM, the TGI (UACC-62 melanoma) was 41.3 µM and the TGI (UO-31 renal) was 38.9 µM.
Work on `NC(N)=N/N=C/c1c(-c2ccc([N+](=O)[O-])cc2)nc2sc(Cl)cn12` yielded a TGI (786-0 renal) of 0.605 µM, a TGI (A498 renal) of 2.77 µM and a TGI (A549 NSCLC) of 3.09 µM. It also gave a TGI (ACHN renal) of 2.42 µM, a TGI (CAKI-1 renal) of 3.76 µM and a TGI (CCRF-CEM leukemia) of 1.14 µM. It also gave a TGI (COLO 205 colon) of 2.06 µM, a TGI (EKVX NSCLC) of 1.53 µM and a TGI (HCT-116 colon) of 0.575 µM. For the same compound, the TGI (HOP-62 NSCLC) was 3.11 µM, the TGI (HOP-92 NSCLC) was 4.05 µM and the TGI (HS 578T breast) was over 100 µM. For the same compound, the TGI (HT29 colon) was 3 µM, the TGI (KM12 colon) was 2.4 µM and the TGI (MALME-3M melanoma) was 3.63 µM. The TGI (MDA-MB-435) was 2.33 µM, the TGI (MDA-N) was 3.12 µM and the TGI (NCI-H23 lung) was 2.69 µM. For the same compound, the TGI (NCI/ADR-RES ovarian) was 3.45 µM, the TGI (OVCAR-4 ovarian) was 0.954 µM and the TGI (OVCAR-5 ovarian) was 2.69 µM. It also gave a TGI (PC-3 prostate) of 2.04 µM, a TGI (RPMI-8226 leukemia) of 4 µM and a TGI (RXF 393 renal) of 3.8 µM. It also gave a TGI (SF-268 CNS) of 3.31 µM, a TGI (SF-539 CNS) of 4.01 µM and a TGI (SK-MEL-2 melanoma) of 3.2 µM. It also gave a TGI (SK-MEL-28 melanoma) of 3.38 µM, a TGI (SK-MEL-5 melanoma) of 3.6 µM and a TGI (SK-OV-3 ovarian) of 3.31 µM. The TGI (SN12C renal) was 3.05 µM, the TGI (SNB-75 CNS) was 1.3 µM and the TGI (SW-620 colon) was 1.46 µM. It also gave a TGI (T-47D breast) of over 100 µM, a TGI (TK-10 renal) of 3.69 µM and a TGI (UACC-257 melanoma) of 1.41 µM. For the same compound, the TGI (UACC-62 melanoma) was 3.01 µM and the TGI (UO-31 renal) was 2.68 µM.
